Test results reported in ChEMBL document CHEMBL6087476, “Positive Charge-Concentrated Dimeric Lipopeptides with Enhanced Protease Resistance: A Potential Solution for Systemic Bacterial Infections” (J Med Chem, 2025).
Converted amounts (≈) assume the structure as drawn.

Columns and labels:
Acinetobacter baumannii [1] = assay: Antimicrobial activity against Acinetobacter baumannii AB1901 assessed as increase in absorbance incubated for 20 to 22 hrs; format: functional; details: time 20-22 hrs
Acinetobacter baumannii [2] = assay: Antimicrobial activity against Acinetobacter baumannii AB1902 assessed as increase in absorbance incubated for 20 to 22 hrs; format: functional; details: time 20-22 hrs
Pseudomonas aeruginosa [3] = assay: Antimicrobial activity against Pseudomonas aeruginosa 25349 assessed as increase in absorbance incubated for 20 to 22 hrs; format: functional; details: time 20-22 hrs
Staphylococcus aureus [4] = assay: Antimicrobial activity against Staphylococcus aureus 11011 assessed as increase in absorbance incubated for 20 to 22 hrs; format: functional; details: time 20-22 hrs
Escherichia coli [5] = assay: Antimicrobial activity against Escherichia coli ATCC 25922 assessed as increase in absorbance incubated for 20 to 22 hrs; format: functional; details: time 20-22 hrs
Escherichia coli [6] = assay: Antimicrobial activity against Escherichia coli K88 assessed as increase in absorbance incubated for 20 to 22 hrs; format: functional; details: time 20-22 hrs
Escherichia coli [7] = assay: Antimicrobial activity against Escherichia coli K99 assessed as increase in absorbance incubated for 20 to 22 hrs; format: functional; details: time 20-22 hrs
Salmonella typhimurium [8] = assay: Antimicrobial activity against Salmonella typhimurium 7731 assessed as increase in absorbance incubated for 20 to 22 hrs; format: functional, Salmonella enterica subsp. enterica serovar Typhimurium; details: Salmonella enterica, time 20-22 hrs
Salmonella typhimurium [9] = assay: Antimicrobial activity against Salmonella typhimurium 14028 assessed as increase in absorbance incubated for 20 to 22 hrs; format: functional, Salmonella enterica subsp. enterica serovar Typhimurium; details: Salmonella enterica, time 20-22 hrs
Pseudomonas aeruginosa [10] = assay: Antimicrobial activity against Pseudomonas aeruginosa 27853 assessed as increase in absorbance incubated for 20 to 22 hrs; format: functional; details: time 20-22 hrs
Staphylococcus aureus [11] = assay: Antimicrobial activity against Staphylococcus aureus 29213 assessed as increase in absorbance incubated for 20 to 22 hrs; format: functional; details: time 20-22 hrs
Enterococcus faecalis = assay: Antimicrobial activity against Enterococcus faecalis 29212 assessed as increase in absorbance incubated for 20 to 22 hrs; format: functional; details: time 20-22 hrs
Staphylococcus aureus [12] = assay: Antimicrobial activity against Staphylococcus aureus 25923 assessed as increase in absorbance incubated for 20 to 22 hrs; format: functional; details: time 20-22 hrs
Staphylococcus aureus [13] = assay: Antimicrobial activity against methicillin-resistant Staphylococcus aureus 43300 assessed as increase in absorbance incubated for 20 to 22 hrs; format: functional; details: time 20-22 hrs
[14] = system: Staphylococcus epidermidis; assay: Antimicrobial activity against Staphylococcus epidermidis 12228 assessed as increase in absorbance incubated for 20 to 22 hrs; format: functional; details: time 20-22 hrs
[15] = Hemolytic activity in healthy human RBC assessed as hemolysis incubated for 1 hr by microplate reader; format: toxicity, cell-based; details: erythrocyte
[16] = Cytotoxicity against porcine IPEC-J2 cells assessed as cell death measured after 18 to 24 hrs by MTT assay; format: functional; details: Sus scrofa, time 18-24 hrs
RAW264.7 = assay: Cytotoxicity against mouse RAW264.7 cells assessed as cell death measured after 18 to 24 hrs by MTT assay; format: functional; details: time 18-24 hrs
HEK-293T = assay: Cytotoxicity against human HEK293T cells assessed as cell death measured after 18 to 24 hrs by MTT assay; format: functional; details: time 18-24 hrs

Compound | MIC (Acinetobacter baumannii [1]) [µM] | MIC (Acinetobacter baumannii [2]) [µM] | MIC (Pseudomonas aeruginosa [3]) [µM] | MIC (Staphylococcus aureus [4]) [µM] | MIC (Escherichia coli [5]) [µM] | MIC (Escherichia coli [6]) [µM] | MIC (Escherichia coli [7]) [µM] | MIC (Salmonella typhimurium [8]) [µM] | MIC (Salmonella typhimurium [9]) [µM] | MIC (Pseudomonas aeruginosa [10]) [µM] | MIC (Staphylococcus aureus [11]) [µM] | MIC (Enterococcus faecalis) [µM] | MIC (Staphylococcus aureus [12]) [µM] | MIC (Staphylococcus aureus [13]) [µM] | MIC [14] [µM] | HC10 [15] [µM] | IC10 [16] [µM] | IC10 (RAW264.7) [µM] | IC10 (HEK-293T) [µM]
CC[C@H]1OC(=O)[C@H](C)[C@@H](O[C@H]2C[C@@](C)(OC)[C@@H](O)[C@H](C)O2)[C@H](C)[C@@H](O[C@@H]2O[C@H](C)C[C@H](N(C)C)[C@H]2O)[C@](C)(O)C[C@@H](C)C(=O)[C@H](C)[C@@H](O)[C@]1(C)O [ERYTHROMYCIN] | 64 (≈ 47 µg/mL) | > 64 | 64 (≈ 47 µg/mL) | > 64 | – | – | – | – | – | – | – | – | – | – | – | – | – | – | –
CCCCCCCCCCCC(=O)NCCCC[C@H](NC(=O)[C@@H](N)CS)C(=O)NCC(=O)NCC(=O)NCC(=O)N[C@H](CCCNC(=N)N)C(=O)N[C@@H](CCCNC(=N)N)C(=O)N[C@@H](CCCNC(=N)N)C(=O)N1CCC[C@H]1C(=O)O | – | – | – | – | 32 (≈ 37.4 µg/mL) | 32 (≈ 37.4 µg/mL) | 64 (≈ 74.8 µg/mL) | 64 (≈ 74.8 µg/mL) | 128 (≈ 150 µg/mL) | 32 (≈ 37.4 µg/mL) | 64 (≈ 74.8 µg/mL) | 64 (≈ 74.8 µg/mL) | 128 (≈ 150 µg/mL) | 64 (≈ 74.8 µg/mL) | 64 (≈ 74.8 µg/mL) | 128 | 256 | 128 | 128
CCCCCCCC(=O)NCCCC[C@H](NC(=O)[C@@H](N)CSSC[C@H](N)C(=O)N[C@@H](CCCCNC(=O)CCCCCCC)C(=O)NCC(=O)NCC(=O)NCC(=O)N[C@H](CCCNC(=N)N)C(=O)N[C@@H](CCCNC(=N)N)C(=O)N[C@@H](CCCNC(=N)N)C(=O)N1CCC[C@H]1C(=O)O)C(=O)NCC(=O)NCC(=O)NCC(=O)N[C@H](CCCNC(=N)N)C(=O)N[C@@H](CCCNC(=N)N)C(=O)N[C@@H](CCCNC(=N)N)C(=O)N1CCC[C@H]1C(=O)O | – | – | – | – | 8 (≈ 17.8 µg/mL) | 8 (≈ 17.8 µg/mL) | 8 (≈ 17.8 µg/mL) | 16 (≈ 35.6 µg/mL) | 16 (≈ 35.6 µg/mL) | 16 (≈ 35.6 µg/mL) | 128 (≈ 285 µg/mL) | 128 (≈ 285 µg/mL) | 128 (≈ 285 µg/mL) | 128 (≈ 285 µg/mL) | 128 (≈ 285 µg/mL) | 256 | 256 | 256 | 256
CC(C)(O/N=C(\C(=O)N[C@@H]1C(=O)N2C(C(=O)[O-])=C(C[n+]3ccccc3)CS[C@H]12)c1csc(N)n1)C(=O)O [CEFTAZIDIME] | 0.5 (≈ 0.273 µg/mL) | > 64 | 0.5 (≈ 0.273 µg/mL) | > 64 | – | – | – | – | – | – | – | – | – | – | – | – | – | – | –
O=C(O)c1cn(C2CC2)c2cc(N3CCNCC3)c(F)cc2c1=O [CIPROFLOXACIN] | 0.25 (≈ 0.0828 µg/mL) | > 64 | 0.25 (≈ 0.0828 µg/mL) | > 64 | – | – | – | – | – | – | – | – | – | – | – | – | – | – | –
CCCCCCCCCCCC(=O)NCCCC[C@H](NC(=O)[C@@H](N)CSSC[C@H](N)C(=O)N[C@@H](CCCCNC(=O)CCCCCCCCCCC)C(=O)NCC(=O)NCC(=O)NCC(=O)N[C@H](CCCNC(=N)N)C(=O)N[C@@H](CCCNC(=N)N)C(=O)N[C@@H](CCCNC(=N)N)C(=O)N1CCC[C@H]1C(=O)O)C(=O)NCC(=O)NCC(=O)NCC(=O)N[C@H](CCCNC(=N)N)C(=O)N[C@@H](CCCNC(=N)N)C(=O)N[C@@H](CCCNC(=N)N)C(=O)N1CCC[C@H]1C(=O)O | – | – | – | – | 4 (≈ 9.34 µg/mL) | 16 (≈ 37.4 µg/mL) | 32 (≈ 74.7 µg/mL) | 32 (≈ 74.7 µg/mL) | 16 (≈ 37.4 µg/mL) | 8 (≈ 18.7 µg/mL) | 16 (≈ 37.4 µg/mL) | 16 (≈ 37.4 µg/mL) | 32 (≈ 74.7 µg/mL) | 18 (≈ 42 µg/mL) | 16 (≈ 37.4 µg/mL) | 128 | 128 | 128 | 128
CCCCCCCCCCCC(=O)NCCCC[C@H](N)C(=O)NCC(=O)NCC(=O)NCC(=O)N[C@H](CCCNC(=N)N)C(=O)N[C@@H](CCCNC(=N)N)C(=O)N[C@@H](CCCNC(=N)N)C(=O)N1CCC[C@H]1C(=O)N[C@@H](CS)C(=O)O | – | – | – | – | 16 (≈ 18.7 µg/mL) | 32 (≈ 37.4 µg/mL) | 32 (≈ 37.4 µg/mL) | 32 (≈ 37.4 µg/mL) | 64 (≈ 74.8 µg/mL) | 16 (≈ 18.7 µg/mL) | 64 (≈ 74.8 µg/mL) | 32 (≈ 37.4 µg/mL) | 64 (≈ 74.8 µg/mL) | 64 (≈ 74.8 µg/mL) | 64 (≈ 74.8 µg/mL) | 64 | 32 | 64 | 128
CC1(C)S[C@@H]2[C@H](NC(=O)Cc3ccccc3)C(=O)N2[C@H]1C(=O)O [PENICILLIN G SODIUM] | 64 | > 64 | > 64 | > 64 | – | – | – | – | – | – | – | – | – | – | – | – | – | – | –
CN[C@H](CC(C)C)C(=O)N[C@H]1C(=O)N[C@@H](CC(N)=O)C(=O)N[C@H]2C(=O)N[C@H]3C(=O)N[C@H](C(=O)N[C@H](C(=O)O)c4cc(O)cc(O)c4-c4cc3ccc4O)[C@H](O)c3ccc(c(Cl)c3)Oc3cc2cc(c3O[C@@H]2O[C@H](CO)[C@@H](O)[C@H](O)[C@H]2O[C@H]2C[C@](C)(N)[C@H](O)[C@H](C)O2)Oc2ccc(cc2Cl)[C@H]1O [VANCOMYCIN] | 32 (≈ 46.4 µg/mL) | > 64 | > 64 | > 64 | – | – | – | – | – | – | – | – | – | – | – | – | – | – | –
